Structures can show the parent of a compound that is named as a salt.
Columns and labels:
WT and α1b-AR KO mice [1] = assay: Locomotor activity in circular corridor after acute drug injection; type: in vivo; conditions: for amplitude of locomotor response, α1b-AR KO vs WT mice: D-amphetamine 2 and 3 mg/kg, cocaine and morphine independent of dose
Procedure: FIG. 2 is a series of dose response graphs that depicts the results of locomotor response to novelty, saline, scopolamine and chloro-APB experiments in WT and α1b-AR KO mice. […] Animals were placed in the experimental apparatus for 90 minutes, received a saline injection and were replaced in the apparatus for 60 minutes. On the following day, animals were placed in the experimental apparatus for 90 minutes, they received an intraperitoneal injection of either saline or scopolamine (1 mg/kg) and their locomotor response was measured every 5 minutes for 60 minutes. FIG. 2D represents the results of locomotor response to chloro-APB; animals were placed in the experimental apparatus for 90 minutes, received a saline injection and were replaced in the apparatus for 60 minutes. On the following days, animals were placed in the experimental apparatus for 90 minutes, they received an intraperitoneal injection of chioro-APB and their locomotor response was measured every 5 minutes for 60 minutes. Several doses of chloro-APB were tested on consecutive days in a random order.
Independent groups of animals were used for each treatment to avoid eventual behavioral sensitization (N=6-16 per group).
(§1) Mice were introduced in a circular corridor (4.5 cm width, 17 cm external diameter) crossed by four infrared beams (1.5 cm above the base) placed at every 90° (Imetronic, Pessac, France). The locomotor activity was counted when animals interrupted two successive beams and, thus, had traveled ¼ of the circular corridor. In each session, the spontaneous activity was recorded for 90 minutes, before mice received either saline or drugs. Their activity was recorded for an additional 60 minutes or 120 minutes period. The first session was a session of habituation to the experimental procedure during which animals received saline (˜3 ml/kg, i.p.). The locomotor response to a drug administration was measured on the following day. Tests were performed between 12:00 and 6:00 p.m. in stable conditions of temperature and humidity.

WT and α1b-AR KO mice [2] = assay: Oral consumption, two-bottle choice paradigm; type: in vivo; conditions: cocaine 0.2 mg/ml, morphine 0.15 mg/ml
Procedure: Fluid intake was measured daily by weighting bottles, mice being housed individually. Tested solutions were replaced twice weekly.
Cocaine and morphine: For two weeks, bottles were filled with cocaine or morphine solution of decreasing concentration (one dose per week; 0.3 mg/ml then 0.2 mg/ml for cocaine and 0.2 mg/ml and 0.15 mg/ml for morphine) instead of water, so that mice accustom to the bitter taste. […] Then, to determine mean water consumption and eliminate basal side preference, two bottles of water were given for three days to each animal and basal consumption was calculated as the mean consumption from one bottle on day 2 and the other on day 3. Preference for cocaine (0.2 mg/ml) or morphine (0.15 mg/ml) was then measured over two 12-day sessions, drug and water sides being exchanged between the 2 sessions. Means of drug and water consumptions were estimated for the last 5 days of both 12-day periods.
Rewarding properties of cocaine and morphine were assessed in a two-bottle choice paradigm adapted from the method described by Ferraro et al. (Ferraro et al., Pharmacol. Biochem. Behav. 66:397-401, 2000) for cocaine and Borg and Taylor (Borg et al., Biochem. Behav. 47:633-46, 1994) for morphine.

WT and α1b-AR KO mice [3] = assay: Locomotor sensitization induced by repeated drug administration; type: in vivo
Procedure: Animals spent 90 minutes in the experimental apparatus, received a saline injection and were replaced in the apparatus for 60 minutes. […] Four similar sessions took place every other day. The sixth session took place after a 10-day withdrawal. Locomotor responses measured during the first hour following each injection are presented in function of the number of injections and slope values. N=6 to 15 animals per group.
N=6 to 12 animals per group. […] FIG. 6B represents the time course of the locomotor responses measured every 5 minutes.
as §1
Data were analyzed with Student's t-test or analysis of variance. For behavioral sensitization experiments, correlation between the number of drug injections and the amplitude of the locomotor responses was analyzed with linear regression and the influence of genotype on this correlation with an analysis of covariance. Genotype and prazosin treatments were between-subjects factors. […] Differences were considered significant when p<0.05.
The rate of sensitization was evaluated by determining the slope of the “number of injections/response” curve (FIG. 5).

WT and α1b-AR KO mice [4] = assay: Morphine-induced conditioned place preference (Y maze); type: in vivo; conditions: for conditioned place preference (CPP): morphine 5 mg/kg s.c.; for locomotor activity during conditioning sessions, morphine vs saline: repeated morphine 5 mg/kg s.c.
Procedure: FIG. 8 is a series of histograms and dose response graphs that represents the results of a conditioned place preference experiment induced by morphine in WT and α1b-AR KO mice. WT and α1b-AR KO mice were conditioned to receive morphine (5 mg/kg s.c.) in a compartment and a saline injection in the other compartment. The saline group received saline injections in both compartments. N=6 to 11 animals per group. The upper left graph show the time spent in the morphine-associated compartment before conditioning (pre-test), after four morphine injections and four saline injections (post-test 1) and after two supplementary morphine and two supplementary saline injections (post-test 2). *p<0.05 and **p<0.01 when time spent in the drug compartment was different between pretest and post-test 1 or 2 (paired Student's t-test). The upper right graph show scores that correspond to the time spent in the morphine compartment during the post-test (1 and 2) minus time spent in the morphine compartment during the pre-test. p<0.05 when scores were higher for morphine treated mice than for saline treated mice (unpaired Student's t-test). The lower left and lower right graphs show the locomotor activity measured during the 30 minutes of each of the 12 conditioning sessions corresponding either to morphine or to saline injection. ***p<0.001 locomotor activity measured during the morphine session was higher than during the corresponding saline session (paired Student's t-test).
Conditioned place preference was measured in a Y maze. Mice were habituated to the experimental apparatus (Imetronic, Pessac, France) for 3 days (1 hour of exploration of the maze with neutral cues, i.e. smooth gray walls and floor). On the following day, animals were allowed to freely explore the two compartments (with different visual and tactile cues) of the maze for 20 minutes corresponding to a pre-conditioning test. The total amount of time spent in each compartment was recorded and analyzed as previously described (Valverde et al., Psychopharmacology (Berlin) 123:119-26, 1996). For the next […] corresponding to the conditioning session, mice alternatively received morphine (5 mg/kg; s.c.) in one compartment and saline in the other compartment the following day. According to the unbiased method, morphine was equally associated to both compartments and was given either first or second, mice being confined in one compartment for the 30 minutes following each injection. One day after the end of the conditioning session, mice were submitted to a post-conditioning test identical to the test performed before conditioning, i.e. each mice being allowed to explore both compartments for 20 minutes. […] Locomotor activities were recorded with electronic cells in each conditioning session.

α1-adrenergic receptors = conditions: cited from earlier work
α1b-ARs = molecular target: T1, α1b-ARs (Mus musculus, UniProt P97717); assay: Prazosin effect on locomotor responses to D-amphetamine, cocaine and morphine; type: in vivo, mice; conditions: prazosin 1 mg/kg i.p. pre-treatment
T1 construct: endogenous in cells; host or cells: living adult male WT mice (129/Sv x C57BL/6J mixed background), in vivo; α1b-AR KO mice as comparison
T1 sequence (P97717 1-514): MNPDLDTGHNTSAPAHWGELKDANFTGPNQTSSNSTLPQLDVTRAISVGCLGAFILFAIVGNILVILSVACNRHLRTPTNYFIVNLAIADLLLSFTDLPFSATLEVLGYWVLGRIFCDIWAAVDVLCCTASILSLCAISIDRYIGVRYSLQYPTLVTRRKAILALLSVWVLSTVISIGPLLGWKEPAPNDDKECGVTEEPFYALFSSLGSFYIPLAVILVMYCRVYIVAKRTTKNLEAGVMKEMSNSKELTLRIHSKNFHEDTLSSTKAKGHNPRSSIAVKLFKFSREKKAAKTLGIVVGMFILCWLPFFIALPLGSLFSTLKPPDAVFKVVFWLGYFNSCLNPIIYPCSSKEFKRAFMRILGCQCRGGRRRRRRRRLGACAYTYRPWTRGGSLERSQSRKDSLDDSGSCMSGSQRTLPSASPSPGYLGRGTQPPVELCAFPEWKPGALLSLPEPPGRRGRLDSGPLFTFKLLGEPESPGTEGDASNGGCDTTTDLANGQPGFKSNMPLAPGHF
Procedure: Animals were placed in the experimental apparatus for 150 minutes, received two saline injections after 60 minutes and 90 minutes spent in the corridor. On the following day, animals were placed in the experimental apparatus for 60 minutes, they received an intrapenitoneal injection of either saline or prazosin (1 mg/kg) and were replaced in the corridor for 30 minutes. […] Independent groups of animals were used for each treatment to avoid eventual behavioral sensitization (N=6-12 per group).
as §1, with “In each session, the spontaneous activity was recorded for 90 minutes, before mice received either saline or drugs.” left out

[5] = α1b-AR KO mice, i.p., different doses

Br.C=CCN1CCc2c(cc(O)c(O)c2Cl)C(c2ccccc2)C1 (stereo not shown) [chloro-APB, chloro-APB hydrobromide]
locomotor activity (WT and α1b-AR KO mice [1]; WT mice, chloro-APB i.p., several doses): dose-dependently increase locomotor activity | amplitudes of locomotor responses, WT vs α1b-AR KO mice (WT and α1b-AR KO mice [1]; chloro-APB i.p., several doses): No significant differences

COC(=O)[C@H]1[C@@H](OC(=O)c2ccccc2)C[C@@H]2CC[C@H]1N2C.Cl [cocaine, cocaine hydrochloride]
drug consumption vs water in two-bottle choice (rewarding properties) (WT and α1b-AR KO mice [2]; KO mice): aversion | drug consumption vs water in two-bottle choice (rewarding properties) (WT and α1b-AR KO mice [2]; WT mice): exhibited a preference | locomotor responses of drug-treated vs naive mice (WT and α1b-AR KO mice [3]; KO mice, cocaine 5 mg/kg, 5 previous drug injections): no significant difference | rate of sensitization: slope of the number of injections/response curve (WT and α1b-AR KO mice [3]; WT mice, cocaine 5 mg/kg): 101.0±47.4 | rate of sensitization: slope of the number of injections/response curve (WT and α1b-AR KO mice [3]; WT mice, cocaine 15 mg/kg): 198.2±48.19 | rate of sensitization: slope of the number of injections/response curve (WT and α1b-AR KO mice [3]; α1b-AR KO mice, cocaine 5 mg/kg): −0.155±20.96 | rate of sensitization: slope of the number of injections/response curve (WT and α1b-AR KO mice [3]; α1b-AR KO mice, cocaine 15 mg/kg): 102.8±19.37 | amplitude of locomotor response, α1b-AR KO vs WT mice (WT and α1b-AR KO mice [1]): significantly altered by the genotype | locomotor activity (WT and α1b-AR KO mice [1]; WT mice, i.p., different doses): dose-dependent stimulation of locomotor activity | locomotor activity (WT and α1b-AR KO mice [1]; [5]): also increased locomotor activity

CN1CC[C@]23c4c5ccc(O)c4O[C@H]2[C@@H](O)C=C[C@H]3[C@H]1C5 [morphine, morphine chiorhydrate]
drug consumption vs water in two-bottle choice (rewarding properties) (WT and α1b-AR KO mice [2]; KO mice): aversion | rate of sensitization: slope of the number of injections/response curve (WT and α1b-AR KO mice [3]; WT mice, morphine 7.5 mg/kg): 146.7±51.4 | rate of sensitization: slope of the number of injections/response curve (WT and α1b-AR KO mice [3]; α1b-AR KO mice, morphine 7.5 mg/kg): 38.17±19.48 | conditioned place preference (CPP) (WT and α1b-AR KO mice [4]; KO mice): not in KO mice | locomotor activity during conditioning sessions, morphine vs saline (WT and α1b-AR KO mice [4]; KO mice): no significant difference | conditioned place preference (CPP) (WT and α1b-AR KO mice [4]; WT mice): significant CPP was induced | locomotor activity during conditioning sessions, morphine vs saline (WT and α1b-AR KO mice [4]; WT mice): induce a behavioral sensitization in WT | amplitude of locomotor response, α1b-AR KO vs WT mice (WT and α1b-AR KO mice [1]): significantly altered by the genotype | stereotyped walking behavior (WT and α1b-AR KO mice [1]; KO mice): induced a stereotyped walking behavior | locomotor activity (WT and α1b-AR KO mice [1]; WT mice, i.p., different doses): dose-dependent stimulation of locomotor activity | locomotor activity (WT and α1b-AR KO mice [1]; [5]): also increased locomotor activity

COc1cc2nc(N3CCN(C(=O)c4ccco4)CC3)nc(N)c2cc1OC [prazosin]
behavioral sensitization with prazosin co-administered with repeated cocaine or D-amphetamine injections (α1-adrenergic receptors; background statement): no behavioral sensitization is observed | locomotor hyperactivity induced by D-amphetamine, cocaine, GBR12783 and morphine (α1-adrenergic receptors; background statement): completely inhibits | D-amphetamine-induced locomotor hyperactivity and extracellular DA responses in the nucleus accumbens (α1-adrenergic receptors; rats, Darracq et al. 1998): inhibits D-amphetamine-induced locomotor hyperactivity without modifying extracellular DA responses | effect on locomotor response to D-amphetamine (α1b-ARs; WT mice, D-amphetamine 3 mg/kg): significantly reduced | effect on locomotor response to cocaine (α1b-ARs; WT mice, cocaine 20 mg/kg): significantly reduced | effect on locomotor response to morphine (α1b-ARs; WT mice, morphine 10 mg/kg): significantly reduced | effect on locomotor responses to D-amphetamine, cocaine and morphine (α1b-ARs; α1b-AR KO mice): failed to modify

CN1[C@@H]2C[C@@H](OC(=O)[C@H](CO)c3ccccc3)C[C@H]1[C@@H]1O[C@@H]12 [scopolamine, scopolamine hydrobromide]
stimulatory effect on locomotor activity, WT vs α1b-AR KO mice (WT and α1b-AR KO mice [1]; scopolamine 1 mg/kg i.p., 60 minutes): equivalent
